Measured values reported in US20040132049A1, “Method for the detection of apoptosis” (priority 2002, published 2004).

Legend:
[1] = target: plasma membrane nucleolin (Homo sapiens, UniProt P19338); set-up: key: 1: Indicates a good plasma membrane nucleolin-binding GRO.; 2: Indicates a nucleolin control (non-plasma membrane nucleolin binding); details: superscript on GRO name in Table 2; cited from earlier work
[2] = test system: U937 cells; test: DNA fragmentation (DNA ladder) assay of apoptosis; type: cell-based, Human; details: 10 μM CPT
Protocol: Camptothecin (CPT; Sigma Co.; St. Louis, Mo.), an anti-neoplastic topo-isomerase I (Top I) inhibitor, was dissolved in 0.5% (v/v) dimethyl sulfoxide (DMSO)/PBS as stock solutions (stored at −20° C.) and further diluted with water before use. Human U937 cells (myeloid leukemia cell line, from American Type Culture Collection (ATCC); Manassas, Va.) were grown in suspension in RPMI 1640 medium supplemented with 10% heat-inactivated (20 minutes at 65° C.) fetal bovine serum (FBS), 100 U/ml penicillin, 100 μg/ml streptomycin at 37° C. with 5% CO2. For treatment with CPT, exponentially growing U937 cells were treated with 10 μM CPT for 24 hours. For UV irradiation, cells were plated at 5×10^5 cells/ml in dishes (60 mm diameter). The cells were irradiated with UV-light by placing the plate (without a lid) directly in a Stratagene (La Jolla) UV Stratalinker and irradiating for 30 seconds at 254 nm. Some cells received 30 minutes pre-incubation with 1 mM 3-aminobenzamide (ABA); Sigma). Cells were then replaced in the incubator at 37° C. for various times. Apoptosis was observed using a DNA fragmentation assay (Facompre et al., 2001). In this assay, apoptosis is indicated by the appearance of a DNA “ladder”, which is produced by endonuclease cleavage of chromosomal DNA into nucleosomal fragments.

[3] = test system: nucleolin in U937 cells; test: Immunofluorescence staining of nucleolin in cells; type: cell-based, Human
Protocol: Cells were collected by centrifugation, washed twice with PBS, and placed on glass slides using a cytospinner. Samples were fixed in 4% paraformaldehyde in PBS for 15 minutes at room temperature and then permeabilized with 0.2% Triton X-100 in PBS for 10 minutes. After two washes with PBS, nonspecific antibody binding sites were blocked by 1 hour incubation at room temperature with 5% normal goat serum in PBS. After 3 washes with PBS, slides were incubated in primary antibody (1:100 anti-mAb IgG1; Santa Cruz Biotechnology) for 1 hour at room temperature then washed 3 times in PBS. Samples were incubated with Alexa-488-labeled secondary antibodies (diluted 1:500 in blocking buffer) for 1 hour at room temperature. Slides were washed 3 times in PBS, were observed using an Olympus BX60F fluorescence microscope and photographed using an Olympus DPIO camera.
Untreated, UV-irradiated, and 10 μM CPT-treated U937 cells were examined using the above staining method. Culture and treatment conditions were as in Example 2. […] Moreover, there was a dramatic redistribution of nucleolin in the apoptotic nuclei. In untreated cells, nucleolin was predominantly located in the intensely stained nucleoli (FIG. 1, panels A and D), whereas 24 hours after UV irradiation, nucleolin was distributed throughout the nucleolplasm in a speckled pattern (FIG. 1, panels B and E). […]

[4] = test system: nucleolin and PARP-1 proteins in U937 cells; test: Immunoblot of nucleolin and PARP-1 in S-100 and nuclear extracts after CPT-induced apoptosis; type: cell-based, Human
Protocol: Cells were harvested and washed twice with cold PBS. S-100 and nuclear extracts were prepared (Coqueret and Gascan, 2000). Briefly, 100 μl of ice-cold extraction buffer B (10 mM 4-(2-Hydroxyethyl)piperazine-1-ethanesulfonic acid (HEPES; pH 7.9), 1.5 mM MgCl2, 10 mM KCl, 1 mM phenylmethylsulfonyl fluoride (PMSF), 1 μg/ml leupeptin, 1 μg/ml aprotinin) were added to the cells. After three cycles of freeze-thaw, S-100 extracts were recovered as supernatant following centrifugation at 12,000 rpm for 1 minute, and pellets containing nuclei were resuspended in 40 μl of buffer C (20 mM HEPES, pH 7.9, 1.5 mM MgCl2, 420 mM KCl, 0.2 mM EDTA, 25% glycerol, 1 mM PMSF, 1 μg/ml leupeptin, 1 μg/ml aprotinin). Following 30 minutes incubation at 4° C., insoluble material was removed by centrifugation at 12,000 rpm for 5 minutes, and nuclear extracts were collected as supernatant. Extracts were either used immediately or frozen and stored at −80° C.
The concentration of extracted proteins was determined using the BioRad DC protein assay kit (BioRad; Hercules, Calif.). Samples (10 μg) were incubated in sodium dodecyl sulfate (SDS)-loading buffer (100 mM Tris-HCl, pH 6.8, 200 mM dithiothreitol (DTT), 4% SDS, 0.2% bromophenol blue, 20% glycerol) at 65° C. for 15 minutes, and separated on 10% (for nucleolin detection) or 8% (for PARP-1) polyacrylamide-SDS gels, followed by electroblotting to polyvinylidene difluoride membranes (PVDF, BioRad). After blocking non-specific binding sites for 1 hour in 5% nonfat dried milk in PBST (0.1% polyoxyethylene(20) sorbitan monolaurate (Tween® 20) in PBS), the membrane was incubated for 1 hour at room temperature or overnight at 4° C. with primary antibody (1:1000 anti-nucleolin or anti-PARP-1; Anti-nucleolin antibody (mouse monoclonal IgG1) and anti-PARP-1 antibody (mouse monoclonal IgG2A) were from Santa Cruz Biotechnology; Santa Cruz; Calif.). After 3 washes in PBST, the membrane was incubated with horseradish peroxidase-conjugated goat anti-mouse antibody (Santa Cruz Biotechnology) for 45 minutes at room temperature and then washed 3 times in PBST. Bound antibodies were detected using enhanced chemiluminescence detection. Equal gel loading and transfer of proteins were confirmed by staining membranes with India ink (Bates et al., 1999).
To determine if the phenomena observed in Example 2 were specific to UV-irradiated cells or a general feature of apoptosis, protein changes in U937 cells treated with 10 μM CPT (prepared as in Example 1) for 24 hours were also examined. The U937 cells were cultured as in Example 2. Apoptosis-induced changes in nucleolin and PARP-1 were examined as in Example 2.

[5] = test system: nucleolin and PARP-1 proteins in U937 cells; test: Immunoblot of nucleolin and PARP-1 in S-100 and nuclear extracts after UV-induced apoptosis; type: cell-based, Human; details: UV-irradiated U937 cells, 30 minutes pre-incubation with 1 mM 3-ABA
Protocol: The concentration of extracted proteins was determined using the BioRad DC protein assay kit (BioRad; Hercules, Calif.). […] After 3 washes in PBST, the membrane was incubated with horseradish peroxidase-conjugated goat anti-mouse antibody (Santa Cruz Biotechnology) for 45 minutes at room temperature and then washed 3 times in PBST. Bound antibodies were detected using enhanced chemiluminescence detection. Equal gel loading and transfer of proteins were confirmed by staining membranes with India ink (Bates et al., 1999).
Some cells received 30 minutes pre-incubation with 1 mM 3-ABA before UV-irradiation.

[6] = test system: U937 cells; test: MTT viable cell assay after UV irradiation; type: cell-based, Human; details: 1 mM 3-ABA pre-treatment, MTT 48 hours after irradiation
Protocol: Because PARP-1 is involved in both repair of DNA damage and induction of apoptosis, 3-ABA can both increase apoptotic cell death (by preventing repair) or decrease it (by preventing PARP-1 cleavage), depending on conditions. Therefore, the ability of 3-ABA to inhibit cell death under the conditions used here was examined. Cells were subjected to UV irradiation with or without 1 mM 3-ABA pre-treatment. Untreated and irradiated cells were plated at 2×10^4/ml in a 96-well plate. Viable cells were assessed using the MTT (3-[4,5-dimethylthiazol-2-yl]-2,5-diphenyl tetrazolium bromide) assay (Norgaard et al., 2001) 48 hours after irradiation.

[7] = test system: nucleolin in medium of U937 cells; test: Immunoblot of nucleolin shed into serum-free culture medium; type: cell-based, Human
Protocol: The possibility that nucleolin was shed into the cell culture medium was examined by probing serum-free medium from cultures of U937 cells irradiated with UV light in the absence or presence of 3-ABA. Cell culture and treatment conditions were as in Example 2. To prepare protein from the cell culture medium, the medium was replaced with serum-free medium, and cells were irradiated. Cells were then centrifuged at 1,200 rpm for 10 minutes. Culture medium was collected from untreated and treated cells at 2 hours and 4 hours following irradiation. The medium was filtered (syringe filters with PVDF membranes, Whatman; Clifton, N.J.), and protein present in the medium was concentrated using Centricon (YM-30, Millipore, Bedford, Mass.) according the manufacturer's instructions.

[8] = U937 cells, 10 μM CPT for 24 hours

Chain of plasma membrane nucleolin (P19338 whole entry, the tested form may be a part): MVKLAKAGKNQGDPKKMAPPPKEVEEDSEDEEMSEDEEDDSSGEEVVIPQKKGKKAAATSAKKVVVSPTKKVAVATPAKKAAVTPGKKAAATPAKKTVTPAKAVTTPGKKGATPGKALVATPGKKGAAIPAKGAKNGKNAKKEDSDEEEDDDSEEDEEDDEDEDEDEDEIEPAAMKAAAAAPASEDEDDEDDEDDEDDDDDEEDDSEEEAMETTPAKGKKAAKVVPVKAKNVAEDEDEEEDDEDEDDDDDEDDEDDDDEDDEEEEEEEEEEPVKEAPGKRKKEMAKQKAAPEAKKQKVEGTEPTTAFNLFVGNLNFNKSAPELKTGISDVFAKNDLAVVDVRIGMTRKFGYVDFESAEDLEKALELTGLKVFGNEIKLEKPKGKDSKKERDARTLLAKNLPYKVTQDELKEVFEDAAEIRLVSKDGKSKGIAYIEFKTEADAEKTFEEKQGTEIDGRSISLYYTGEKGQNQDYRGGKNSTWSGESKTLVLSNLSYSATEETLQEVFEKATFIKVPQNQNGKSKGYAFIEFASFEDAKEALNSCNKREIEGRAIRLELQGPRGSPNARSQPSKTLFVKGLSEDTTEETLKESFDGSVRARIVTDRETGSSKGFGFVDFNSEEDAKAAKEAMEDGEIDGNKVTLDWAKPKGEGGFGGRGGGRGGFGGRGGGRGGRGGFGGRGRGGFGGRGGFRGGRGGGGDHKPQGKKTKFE

| Compound | plasma membrane nucleolin binding designation [1] | further results |
| --- | --- | --- |
| GRO M: SEQ ID NO:31 ggttttggtt ttggttttgg ttttgg (DNA GGTTTTGGTTTTGGTTTTGGTTTTGG; listed as DNA, chemistry not given here) | GRO M^1 |  |
| GRO O: SEQ ID NO:33 cctcctcctc cttctcctcc tcctcc; nucleolin control (DNA CCTCCTCCTCCTTCTCCTCCTCCTCC; listed as DNA, chemistry not given here) | GRO O^2 |  |
| CC[C@@]1(O)C(=O)OCc2c1cc1n(c2=O)Cc2cc3ccccc3nc2-1 [CPT, Camptothecin] |  | induction of apoptosis (DNA ladder) [2]: induced apoptosis; time at which DNA ladder clearly observed [2]: 24 h; distribution of nucleolin in nuclei ([3]; U937 cells treated with CPT for 24 hours): the majority of nuclei exhibited a distinct pattern of staining; overall intensity of nuclear nucleolin staining ([3]; U937 cells, 10 μM CPT): decreased slightly; nuclear nucleolin [4, 8]: reduced the amount of nuclear nucleolin; nucleolin in S-100 fraction [4, 8]: caused a disappearance of nucleolin from the S-100 fraction; PARP-1 cleavage ([4]; U937 cells, 10 μM CPT, after 4 hours): only partial cleavage |
| GRO Q: SEQ ID NO:35 gcatgct; nucleolin control (DNA GCATGCT; listed as DNA, chemistry not given here) | GRO Q^2 |  |
| GRO H: SEQ ID NO:26 ggggttttgg gg (DNA GGGGTTTTGGGG; listed as DNA, chemistry not given here) | GRO H^1 |  |
| GRO J: SEQ ID NO:28 ggggttttgg ggttttgggg ttttgggg (DNA GGGGTTTTGGGGTTTTGGGGTTTTGGGG; listed as DNA, chemistry not given here) | GRO J^1 |  |
| GRO P: SEQ ID NO:34 tggggt; nucleolin control | GRO P^2 |  |
| GRO K: SEQ ID NO:29 ttggggttgg ggttggggtt gggg (DNA TTGGGGTTGGGGTTGGGGTTGGGG; listed as DNA, chemistry not given here) | GRO K^1 |  |
| GRO S: SEQ ID NO:37 tagg; nucleolin control (DNA TAGG; listed as DNA, chemistry not given here) | GRO S^2 |  |
| GRO N: SEQ ID NO:32 tttcctcctc ctccttctcc tcctcctcc; nucleolin control (DNA TTTCCTCCTCCTCCTTCTCCTCCTCCTCC; listed as DNA, chemistry not given here) | GRO N^2 |  |
| GRO G: SEQ ID NO:25 ggttggtgtg gttgg | GRO G^1 |  |
| GRO15B: SEQ ID NO:8 ttgggggggg tgggt (TTGGGGGGGGTGGGT; listed as DNA, chemistry not given here) | GRO15B^2 |  |
| CRO: SEQ ID NO:18 tttcctcctc ctccttctcc tcctcctcc; nucleolin control (DNA TTTCCTCCTCCTCCTTCTCCTCCTCCTCC; listed as DNA, chemistry not given here) | CRO^2 |  |
| GRO R: SEQ ID NO:36 gcggtttgcg g; nucleolin control (DNA GCGGTTTGCGG; listed as DNA, chemistry not given here) | GRO R^2 |  |
| GRO26B: SEQ ID NO:10 ggtggtggtg gttgtggtgg tggtgg | GRO26B^1 |  |
| GRO I: SEQ ID NO:27 gggttttggg (DNA GGGTTTTGGG; listed as DNA, chemistry not given here) | GRO I^1 |  |
| NC(=O)c1cccc(N)c1 [3-ABA, 3-aminobenzamide] |  | PARP-1 cleavage [5]: abrogation of PARP-1 cleavage; disappearance of S-100 nucleolin [5]: drastically inhibited the disappearance of S-100 nucleolin; loss of nuclear nucleolin [5]: prevented the loss of nuclear nucleolin; reduction of UV-induced cell death [6]: only to a small degree; nucleolin in medium of untreated (non-irradiated) cells ([7]; U937 cells without UV irradiation, with 3-ABA treatment): almost no nucleolin was detected; appearance of full-length nucleolin band in medium after UV irradiation ([7]; UV-irradiated U937 cells, serum-free medium, with 3-ABA): inhibited; protection from apoptosis-induced changes in nucleolin and PARP-1 ([4]; CPT-treated U937 cells, pre-incubation with 3-ABA): only a small degree of protection |
